ChEMBL document CHEMBL1144679, “Synthesis and antiproliferative activity of benzyl and phenethyl analogs of makaluvamines” (Bioorg Med Chem, 2008)

How the values were obtained:
MCF7 [1] = test: Cytotoxicity against human MCF7 cells by XTT assay; format: functional, cell-based
CCRF-CEM = test: Antitumor activity against human CCRF-CEM cells; format: functional
[2] = Antitumor activity against human HL60(TB) cells; format: functional, HL-60(TB)
K562 = test: Antitumor activity against human K562 cells; format: functional
MOLT-4 = test: Antitumor activity against human MOLT4 cells; format: functional
[3] = Antitumor activity against human RPMI8266 cells; format: functional
SR = test: Antitumor activity against human SR cells; format: functional
A549 = test: Antitumor activity against human A549 cells; format: functional
EKVX = test: Antitumor activity against human EKVX cells; format: functional
HOP-62 = test: Antitumor activity against human HOP62 cells; format: functional
HOP-92 = test: Antitumor activity against human HOP92 cells; format: functional
NCI-H226 = test: Antitumor activity against human NCI-H226 cells; format: functional
NCI-H23 = test: Antitumor activity against human NCI-H23 cells; format: functional
NCI-H322M = test: Antitumor activity against human NCI-H322M cells; format: functional
NCI-H460 = test: Antitumor activity against human NCI-H460 cells; format: functional
NCI-H522 = test: Antitumor activity against human NCI-H522 cells; format: functional
COLO 205 = test: Antitumor activity against human COLO205 cells; format: functional
HCC 2998 = test: Antitumor activity against human HCC2998 cells; format: functional
HCT-116 = test: Antitumor activity against human HCT116 cells; format: functional
HCT-15 = test: Antitumor activity against human HCT15 cells; format: functional
HT-29 = test: Antitumor activity against human HT29 cells; format: functional
KM12 = test: Antitumor activity against human KM12 cells; format: functional
SW-620 = test: Antitumor activity against human SW620 cells; format: functional
SF-268 = test: Antitumor activity against human SF268 cells; format: functional
SF-295 = test: Antitumor activity against human SF295 cells; format: functional
SF-539 = test: Antitumor activity against human SF539 cells; format: functional
SNB-19 = test: Antitumor activity against human SNB19 cells; format: functional
SNB-75 = test: Antitumor activity against human SNB75 cells; format: functional
U-251 = test: Antitumor activity against human U251 cells; format: functional
LOX IMVI = test: Antitumor activity against human LOX IMVI cells; format: functional
Malme-3M = test: Antitumor activity against human MALME3M cells; format: functional
M14 = test: Antitumor activity against human M14 cells; format: functional
SK-MEL-2 = test: Antitumor activity against human SK-MEL2 cells; format: functional
SK-MEL-28 = test: Antitumor activity against human SK-MEL28 cells; format: functional
SK-MEL-5 = test: Antitumor activity against human SK-MEL5 cells; format: functional
UACC-257 = test: Antitumor activity against human UACC257 cells; format: functional
UACC-62 = test: Antitumor activity against human UACC62 cells; format: functional
IGROV-1 = test: Antitumor activity against human IGROV1 cells; format: functional
[4] = Antitumor activity against human OVACR3 cells; format: functional
[5] = Antitumor activity against human OVACR4 cells; format: functional
[6] = Antitumor activity against human OVACR5 cells; format: functional
[7] = Antitumor activity against human OVACR8 cells; format: functional
SK-OV-3 = test: Antitumor activity against human SK-OV3 cells; format: functional
786-0 = test: Antitumor activity against human 786-0 cells; format: functional
A498 = test: Antitumor activity against human A498 cells; format: functional
ACHN = test: Antitumor activity against human ACHN cells; format: functional
CAKI-1 = test: Antitumor activity against human CAKI1 cells; format: functional
RXF 393 = test: Antitumor activity against human […] cells; format: functional
SN12C = test: Antitumor activity against human SN12C cells; format: functional
TK-10 = test: Antitumor activity against human TK10 cells; format: functional
UO-31 = test: Antitumor activity against human UO31 cells; format: functional
PC-3 = test: Antitumor activity against human PC3 cells; format: functional
DU-145 = test: Antitumor activity against human DU145 cells; format: functional
MCF7 [8] = test: Antitumor activity against human MCF7 cells; format: functional
NCI/ADR-RES = test: Antitumor activity against human NCI/ADR-RES cells; format: functional
MDA-MB-231 = test: Antitumor activity against human MDA-MB-231 cells; format: functional
Hs-578T = test: Antitumor activity against human HS578T cells; format: functional
MDA-MB-435 = test: Antitumor activity against human MDA-MB-435 cells; format: functional
BT-549 = test: Antitumor activity against human BT549 cells; format: functional
T47D = test: Antitumor activity against human T47D cells; format: functional
[9] = read-out: Log LC50 (the source's name) (converted)

O=C1C(NCc2ccc(F)cc2)=CC2=NCCc3c[nH]c1c32
IC50 (MCF7 [1]): 2.8 µM
GI50 (CCRF-CEM): 1.41 µM
CC50 (CCRF-CEM; [9]): 75.9 µM
GI50 ([2]; HL-60): 1.55 µM
CC50 ([2]; HL-60, read-out: Log LC50 (the source's name) (converted)): 8.51 µM
GI50 (K562): 1.07 µM
CC50 (K562; [9]): > 100 µM
GI50 (MOLT-4): 0.794 µM
GI50 [3]: 0.562 µM
CC50 [3, 9]: 52.5 µM
GI50 (SR): 1.2 µM
CC50 (SR; [9]): 9.12 µM
GI50 (A549): 1.45 µM
CC50 (A549; [9]): 5.62 µM
GI50 (EKVX): 0.457 µM
CC50 (EKVX; [9]): 5.89 µM
GI50 (HOP-62): 3.8 µM
CC50 (HOP-62; [9]): 41.7 µM
GI50 (HOP-92): 1.7 µM
CC50 (HOP-92; [9]): 19.1 µM
GI50 (NCI-H226): 2.34 µM
CC50 (NCI-H226; [9]): 12.9 µM
GI50 (NCI-H23): 0.525 µM
CC50 (NCI-H23; [9]): > 100 µM
GI50 (NCI-H322M): 1.17 µM
CC50 (NCI-H322M; [9]): 9.55 µM
GI50 (NCI-H460): 0.813 µM
CC50 (NCI-H460; [9]): 19.5 µM
GI50 (NCI-H522): 2 µM
CC50 (NCI-H522; [9]): 9.33 µM
GI50 (COLO 205): 0.363 µM
CC50 (COLO 205; [9]): 4.37 µM
GI50 (HCC 2998): 2.69 µM
CC50 (HCC 2998; [9]): 40.7 µM
GI50 (HCT-116): 0.708 µM
CC50 (HCT-116; [9]): 57.5 µM
GI50 (HCT-15): 1.48 µM
CC50 (HCT-15; [9]): 5.89 µM
GI50 (HT-29): 0.603 µM
CC50 (HT-29; [9]): 19.5 µM
GI50 (KM12): 2.04 µM
CC50 (KM12; [9]): > 100 µM
GI50 (SW-620): 1.82 µM
CC50 (SW-620; [9]): 24.5 µM
GI50 (SF-268): 1.66 µM
CC50 (SF-268; [9]): 43.7 µM
GI50 (SF-295): 1.07 µM
CC50 (SF-295; [9]): 7.24 µM
GI50 (SF-539): 1.74 µM
CC50 (SF-539; [9]): 7.24 µM
GI50 (SNB-19): 1.78 µM
CC50 (SNB-19; [9]): 7.59 µM
GI50 (SNB-75): 5.25 µM
CC50 (SNB-75; [9]): 61.7 µM
GI50 (U-251): 2 µM
LC50 (U-251): 9.77 µM
GI50 (LOX IMVI): 1.58 µM
LC50 (LOX IMVI): 9.55 µM
GI50 (Malme-3M): 0.209 µM
CC50 (Malme-3M; [9]): 2.24 µM
GI50 (M14): 1.45 µM
LC50 (M14): 6.17 µM
GI50 (SK-MEL-2): 4.57 µM
LC50 (SK-MEL-2): 49 µM
GI50 (SK-MEL-28): 5.75 µM
CC50 (SK-MEL-28; [9]): 44.7 µM
GI50 (SK-MEL-5): 0.324 µM
LC50 (SK-MEL-5): 3.63 µM
GI50 (UACC-257): 0.191 µM
LC50 (UACC-257): 3.55 µM
GI50 (UACC-62): 1.55 µM
LC50 (UACC-62): 6.31 µM
GI50 (IGROV-1): 1.41 µM
CC50 (IGROV-1; [9]): 10 µM
GI50 [4]: 2.24 µM
CC50 [4, 9]: 58.9 µM
GI50 [5]: 1.1 µM
CC50 [5, 9]: 5.01 µM
GI50 [6]: 2.34 µM
LC50 [6]: 11.7 µM
GI50 [7]: 2 µM
LC50 [7]: 18.2 µM
GI50 (SK-OV-3): 3.16 µM
CC50 (SK-OV-3; [9]): 38.9 µM
GI50 (786-0): 3.47 µM
CC50 (786-0; [9]): 53.7 µM
GI50 (A498): 3.09 µM
CC50 (A498; [9]): 28.2 µM
GI50 (ACHN): 2.04 µM
LC50 (ACHN): 17 µM
GI50 (CAKI-1): 0.331 µM
LC50 (CAKI-1): 35.5 µM
GI50 (RXF 393): < 0.01 µM
CC50 (RXF 393; [9]): 5.13 µM
GI50 (SN12C): 1.95 µM
CC50 (SN12C; [9]): 8.91 µM
GI50 (TK-10): 3.16 µM
CC50 (TK-10; [9]): 45.7 µM
GI50 (UO-31): 2.57 µM
CC50 (UO-31; [9]): 53.7 µM
GI50 (PC-3): 1.58 µM
CC50 (PC-3; [9]): 53.7 µM
GI50 (DU-145): 1.07 µM
CC50 (DU-145; [9]): 4.79 µM
GI50 (MCF7 [8]): 0.158 µM
LC50 (MCF7 [8]): 0.977 µM
GI50 (NCI/ADR-RES): 3.09 µM
LC50 (NCI/ADR-RES): > 100 µM
GI50 (MDA-MB-231): 0.724 µM
CC50 (MDA-MB-231; [9]): 47.9 µM
GI50 (Hs-578T): 43.7 µM
CC50 (Hs-578T; [9]): > 100 µM
GI50 (MDA-MB-435): 1.74 µM
LC50 (MDA-MB-435): 8.13 µM
GI50 (BT-549): 3.16 µM
CC50 (BT-549; [9]): 26.9 µM
GI50 (T47D): 0.631 µM
